PMC12332266 (Frontiers in Pharmacology, 2025)
Where a name gives a salt, the structure may show the parent alone. Read-outs that look alike come from different tables or passages of the source. One block for each compound: values may come before it.

What was measured:
[1] = ref extensive literature search, cited from earlier work
[2] = test system: hiPSC-CM (iCell Cardiomyocytes^2); assay: Intracellular miRNA expression by RT-qPCR in hiPSC-CM pellets after 72-hour treatment; conditions: for fold induction at 0.3 µM / fold induction at 1 µM / fold induction at 3 µM / fold induction at 10 µM: Homo sapiens
Experimental: (§1) Culture media change was performed every 2 days.
Total RNA was extracted from hiPSC-CM using the miRNeasy 96 Kit (Qiagen, Hilden, Germany) following the manufacturer’s recommendations. After the extraction, RNA purity was assessed by NanoDrop™ 8000 Spectrophotometer (Thermo Fisher Scientific Inc.). 5–10 ng/μL of RNA per sample were reverse transcribed and pre-amplified by using the TaqMan™ Advanced miRNA cDNA Synthesis Kit (Thermo Fisher Scientific Inc.). The synthesized cDNA was used for RT-qPCR with selected TaqMan™ assays (Thermo Fischer Scientific Inc.). RT-qPCR was carried out following the Applied Biosciences TaqMan miRNA expression assay protocol on a ViiA7 instrument (Thermo Fisher Scientific, Inc.). […] Therefore, to maximize the number of drugs and concentrations, explored in the same study, we pooled the triplicates for intracellular profiling of miRNAs. Therefore, no statistical analysis was performed on the data of miRNA profiling in the pellets of hiPSC-CM.
Following RTCA CardioECR assessment, hiPSC-CM cell pellets were collected, and total RNA was extracted and purified to investigate miRNAs upregulation by RT-qPCR. […] For the initial assessment of intracellular miRNAs in 12 different treatments, encompassing various drug classes, we used a panel of 17 miRNAs, which we selected from the publicly available data focusing mainly on in vitro models and structural cardiotoxicants (Supplementary Table S2).

[3] = test system: hiPSC-CM (iCell Cardiomyocytes^2); assay: RTCA CardioECR assessment (impedance and electrophysiology parameters); conditions: hiPSC-CM
Experimental: as §1
After seeding on fibronectin-coated xCELLigence ePlates (Agilent Technologies, Inc. Santa Clara, CA, USA), iCell^2 CM were monitored continuously through impedance electrodes. The following impedance parameters were measured: Cell Index (CI, measure of cell “health” and monolayer integrity), beating rate (BR) and amplitude (CI Amplitude, magnitude of contraction). Electrophysiology-like parameters (Field Potential Duration (FPD), considered as a surrogate for QT in in vivo studies, and Spike Amplitude (SA), depolarization induced by Na^+ channel opening) were measured starting from day 4–6, following the monolayer formation. […] All RTCA CardioECR data were double normalized (DMSO control and the baseline) with no further statistical group comparison for the normalized parameters. The variability of the data within the treatment groups was assessed by standard deviation.

[4] = 72-hour treatment, Supplementary Table 1
[5] = 72-hour treatment, change from baseline
[6] = 72-hour treatment, lowest concentration causing at least 20% change from baseline
[7] = 72 h, read-out: hsa-miR-7-5p fold change
[8] = 72 h, read-out: hsa-miR-29a-5p fold change
[9] = 72 h, read-out: hsa-miR-146b-5p fold change
[10] = 72 h, read-out: hsa-miR-187-3p fold change

Structure (SMILES): CC(C)C[C@H](NC(=O)CNC(=O)c1cc(Cl)ccc1Cl)B1OC(=O)C(CC(=O)O)(CC(=O)O)O1 [Ixazomib Citrate]
Cmax total ([1]; Supplementary Table 1): 0.213 µM | Cmax total ([1]; Table 1): 0.21 µM | hsa-miR-7-5p fold change, intracellular ([2]; 0.03 µM, 72 h): 2.0 | hsa-miR-29a-5p fold change, intracellular ([2]; 0.03 µM, 72 h): 1.5 | hsa-miR-96-5p fold change, intracellular ([2]; 0.03 µM, 72 h): 8.8 | hsa-miR-126-3p fold change, intracellular ([2]; 0.03 µM, 72 h): 1.7 | hsa-miR-133b fold change, intracellular ([2]; 0.03 µM, 72 h): 1.2 | hsa-miR-146b-5p fold change, intracellular ([2]; 0.03 µM, 72 h): 1.0 | hsa-miR-182-5p fold change, intracellular ([2]; 0.03 µM, 72 h): 1.4 | hsa-miR-185-3p fold change, intracellular ([2]; 0.03 µM, 72 h): 1.0 | hsa-miR-187-3p fold change, intracellular ([2]; 0.03 µM, 72 h): 1.1 | hsa-miR-208b-3p fold change, intracellular ([2]; 0.03 µM, 72 h): 0.9 | hsa-miR-7-5p fold change, intracellular ([2]; 0.1 µM, 72 h): 0.3 | hsa-miR-29a-5p fold change, intracellular ([2]; 0.1 µM, 72 h): 2.0 | hsa-miR-96-5p fold change, intracellular ([2]; 0.1 µM, 72 h): 6.4 | hsa-miR-126-3p fold change, intracellular ([2]; 0.1 µM, 72 h): 1.8 | hsa-miR-133b fold change, intracellular ([2]; 0.1 µM, 72 h): 25.3 | hsa-miR-146b-5p fold change, intracellular ([2]; 0.1 µM, 72 h): 1.9 | hsa-miR-182-5p fold change, intracellular ([2]; 0.1 µM, 72 h): 34.9 | hsa-miR-185-3p fold change, intracellular ([2]; 0.1 µM, 72 h): 0.4 | hsa-miR-187-3p fold change, intracellular ([2]; 0.1 µM, 72 h): 3.1 | hsa-miR-208b-3p fold change, intracellular ([2]; 0.1 µM, 72 h): 0.0 | hsa-miR-365a-5p fold change, intracellular ([2]; 0.1 µM, 72 h): 44.3 | hsa-miR-7-5p fold change, intracellular ([2]; 0.3 µM, 72 h): 6.9 | hsa-miR-29a-5p fold change, intracellular ([2]; 0.3 µM, 72 h): 1.7 | hsa-miR-96-5p fold change, intracellular ([2]; 0.3 µM, 72 h): 13.0 | hsa-miR-126-3p fold change, intracellular ([2]; 0.3 µM, 72 h): 2.7 | hsa-miR-133b fold change, intracellular ([2]; 0.3 µM, 72 h): 0.4 | hsa-miR-146b-5p fold change, intracellular ([2]; 0.3 µM, 72 h): 7.1 | hsa-miR-182-5p fold change, intracellular ([2]; 0.3 µM, 72 h): 8.5 | hsa-miR-185-3p fold change, intracellular ([2]; 0.3 µM, 72 h): 2.0 | hsa-miR-187-3p fold change, intracellular ([2]; 0.3 µM, 72 h): 1.6 | hsa-miR-208b-3p fold change, intracellular ([2]; 0.3 µM, 72 h): 0.8 | hsa-miR-365a-5p fold change, intracellular ([2]; 0.3 µM, 72 h): 2.5 | hsa-miR-7-5p fold change, intracellular ([2]; 1 µM, 72 h): 12.6 | hsa-miR-29a-5p fold change, intracellular ([2]; 1 µM, 72 h): 4.7 | hsa-miR-96-5p fold change, intracellular ([2]; 1 µM, 72 h): 13.4 | hsa-miR-126-3p fold change, intracellular ([2]; 1 µM, 72 h): 3.1 | hsa-miR-133b fold change, intracellular ([2]; 1 µM, 72 h): 0.6 | hsa-miR-146b-5p fold change, intracellular ([2]; 1 µM, 72 h): 3.2 | hsa-miR-182-5p fold change, intracellular ([2]; 1 µM, 72 h): 5.6 | hsa-miR-185-3p fold change, intracellular ([2]; 1 µM, 72 h): 0.9 | hsa-miR-187-3p fold change, intracellular ([2]; 1 µM, 72 h): 2.4 | hsa-miR-208b-3p fold change, intracellular ([2]; 1 µM, 72 h): 0.9 | intracellular miRNA upregulation in hiPSC-CM, in words ([2]; 72-hour treatment, four concentrations per drug): highly upregulated hsa-miR-133b, hsa-miR-182-5pand hsa-miR-365a-5p | miRNAs upregulated at the MEC overall (hiPSC-CM pellet) ([2]; fold change ≥2, 72 h): miR-126-3p, miR-29a-5p, miR-7-5p, miR-96-5p | miRNAs hiPSC-CM pellet, MEC overall ([2]; lowest concentration tested which produced miRNA upregulation (fold change ≥2), 72 h): 0.03 µM | Contractility Amplitude magnitude of effect at MEC ([3]; 72-hour treatment): -94% | Field Potential Duration magnitude of effect at MEC ([3]; 72-hour treatment): -35% | Spike Amplitude (SA) magnitude of effect at MEC ([3]; 72-hour treatment): +75% | Beating Rate magnitude of effect at MEC [3, 4]: +33% | Cell Index magnitude of effect at MEC [3, 4]: -37% | Field Potential Duration MEC ([3]; 72-hour treatment, at least 10% change): 0.03 µM | Contractility Amplitude MEC ([3]; 72-hour treatment, at least 20% change): 0.1 µM | Beating Rate MEC ([3]; 72-hour treatment, at least 20% change, Supplementary Table 1): 0.03 µM | Spike Amplitude (SA) MEC ([3]; 72-hour treatment, at least 40% change): 0.03 µM | Beating rate (BR) magnitude of effect at MEC [3, 5]: +33% | Cell index (CI) magnitude of effect at MEC [3, 5]: −37% | Beating rate (BR) MEC [3, 6]: 0.03 µM | Cell index (CI) MEC [3, 6]: 0.3 µM | RTCA, MEC (BR) ([3]; change ≥20%, Table 2): 0.03 µM | RTCA, MEC (CI) ([3]; change ≥20%, Table 2): 0.3 µM

intracellular miRNA upregulation in hiPSC-CM, in words [2]: smallest fold change
Structure (SMILES): O=c1[nH]cc(F)c(=O)[nH]1 [5-FluoroUracil]
Cmax total ([1]; Supplementary Table 1): 4.6 µM | Cmax total ([1]; Table 1): 4.60 µM | fold induction at 0.3 µM [2, 7]: 0.7 | fold induction at 1 µM [2, 7]: 0.5 | fold induction at 3 µM [2, 7]: 0.5 | fold induction at 10 µM [2, 7]: 0.7 | fold induction at 0.3 µM [2, 8]: 0.6 | fold induction at 1 µM [2, 8]: 0.5 | fold induction at 3 µM [2, 8]: 0.5 | fold induction at 10 µM [2, 8]: 0.8 | fold induction at 0.3 µM [2, 9]: 0.6 | fold induction at 1 µM [2, 9]: 0.3 | fold induction at 3 µM [2, 9]: 0.3 | fold induction at 10 µM [2, 9]: 1.6 | fold induction at 0.3 µM [2, 10]: 1.2 | fold induction at 1 µM [2, 10]: 1.2 | fold induction at 3 µM [2, 10]: 1.1 | fold induction at 10 µM [2, 10]: 0.5 | Cell index (CI) MEC [3, 6]: ND (ND – not detected, magnitude of change was lower than 20%) | changes in CI or BR and miRNA expression, in words ([3]; 72 h, RTCA CardioECR and intracellular miRNA compared): did not induce either changes in CI or BR above 20% or miRNA expression above 2-fold change | RTCA, MEC (CI) ([3]; change ≥20%, Table 2): ND (ND – not detected, magnitude of change was lower than 20% for CI/BR)
